# Results from patent US10689374B1, “Pyrimidine-thiazolidinone derivatives” (UNITED ARAB EMIRATES UNIVERSITY, priority 2019, dated 2020).
# Entries after “also recorded” stand apart in the source; their conditions may differ. Counter-ions that a name gives are not always drawn.
# What was measured:
# β TC6 cells = assay: In vitro glucose uptake assay; type: cell-based; settings: each compound at a concentration of 10 μM
# Description: FIG. 5A is a bar graph comparing the results of pioglitazone with compounds 130a-g, each at a concentration of 10 μM, for effect on glucose uptake from β TC6 cells.
# FIG. 5B is a bar graph comparing the results of pioglitazone with compounds 112, 105a-d, 121, 117, 119, and 126, each at a concentration of 10 μM, for effect on glucose uptake from β TC6 cells.
# FIG. 5C is a bar graph comparing the results of metformin with compound 138, each at a concentration of 10 μM, for effect on glucose uptake from β TC6 cells.
# The results of the in vitro glucose uptake study are depicted in FIGS. 5A-5C.
# βTC6 cells = assay: Insulin secretion from βTC6 cells (high range insulin Sandwich ELISA kit); type: cell-based; settings: compounds at 10^−12, 10^−9, 10^−6 M; for basal insulin secretion: absence of glucose; for glucose stimulated insulin release: presence of 2.8 mM glucose
# Description: Secretion of insulin by βTC6 cells was measured using the high range insulin Sandwich ELISA kit.
# Similarly, a variety of thiazolidinedione-2,4-dione-pyrimidine derivatives, at 10^−12, 10^−9, 10^−6 M concentrations, were investigated for their effect on insulin secretion in the absence and presence of 2.8 mM glucose from βTC6 cells. […] These compounds also increase insulin secretion in the presence of glucose and, thereby, prevent hyperglycemia.
# The effects of rhodanine-pyrimidine derivatives 130a-g were also investigated at 10^−12, 10^−9, 10^−6 M concentrations, for effect on insulin secretion in absence and presence of 2.8 mM glucose in βTC6 cells.
SMILES,glucose uptake (β TC6 cells),basal insulin secretion (βTC6 cells),glucose stimulated insulin release (βTC6 cells)
"CN=C1NC(=O)/C(=C\c2ccc(S(=O)(=O)[n+]3ccccc3)cc2)S1 [Compound 105a, 2-(Methylimino)-5-[4′-(N-pyridinesulfonyl)benzylidine]thiazolidin-4-one chloride salt]",most potent activity,significant decrease,significant increase
C/N=C1/NC(=O)/C(=C\c2ccc(S(=O)(=O)Nc3ccnc(N)n3)cc2)S1 [Compound 105b],most potent activity,significant decrease,significant increase
Nc1nccc(NS(=O)(=O)c2ccc(/C=C3/SC(=O)NC3=O)cc2)n1 [Compound 105c],most potent activity,no effect,significantly increased
CN=C1NC(=O)/C(=C\c2cnc(Nc3cccc4ccccc34)nc2)S1 [Compound 112],most potent activity,–,–
"Nc1nccc(NC(=O)CC2SC(=O)NC2=O)n1 (stereo not shown) [Compound 117, N-(2′-Aminopyrimidin-4′-yl)-2-(2″,4″-dioxothiazolidin-5″-yl)acetamide]",most potent activity,significantly inhibited,–
"Cc1ccc(S(=O)(=O)NC(=O)Nc2nccc(NC(=O)CC3SC(=O)NC3=O)n2)cc1 (stereo not shown) [Compound 119, 2-(2′,4′-Dioxothiazolidin-5-yl)-N-[2″-(p-tosylureido)pyrimidin-4″-yl]acetamide]",most potent activity,significantly increased,–
"Cc1cc(O)nc(NC(=O)CN2C(=O)/C(=C\c3ccc(F)cc3)SC2=S)n1 [Compound 126, (E)-2-[5′-(p-Fluorobenzylidene)-4′-oxo-2′-thioxothiazolidin-3′-yl]-N-(4″-hydroxy-6″-methyl-pyrimidin-2″-yl)acetamide]",enhancing the glucose uptake significantly (p<0.001),significant decrease,significant increase
CN(C)c1ncc(/C=C2\SC(=S)NC2=O)cn1 [Compound 130a],–,did not show any effect,did not show any effect
"Nc1ncc(/C=C2\SC(=S)NC2=O)cn1 [Compound 130b, (Z)-5-[(2′-Aminopyrimidin-5′-yl)methylene]-2-thioxothiazolidin-4-one]",–,significantly increased,–
CN(C)c1ncc(/C=C2\SC(=S)N(CC(=O)O)C2=O)cn1 [Compound 130c],–,–,significantly increased
CC(C)Nc1ncc(/C=C2\SC(=S)N(CC(=O)O)C2=O)cn1 [Compound 130d],–,did not show any effect,did not show any effect
O=C(O)CN1C(=O)/C(=C/c2cnc(N3CCOCC3)nc2)SC1=S [Compound 130e],most potent activity,significant increases,significant increases
CCCNc1ncc(/C=C2\SC(=S)N(CC(=O)O)C2=O)cn1 [Compound 130f],most potent activity,significant increases,significant increases
"O=C(O)CN1C(=O)/C(=C/c2cnc(NCc3ccccc3)nc2)SC1=S [Compound 130g, (Z)-2-{5′-[2″-(Benzylamino)pyrimidin-5″-yl]methylene-4′-oxo-2′-thioxothiazolidin-3′-yl}acetic acid]",most potent activity; also recorded: enhancing the glucose uptake significantly (p<0.001),–,significantly increased
